The values below come from paper PMC8557901 (Microbiology Spectrum, 2021).

The test system of this experiment is P. falciparum strain NF54 gametocytes. Nature of the experiment: In vitro gametocyte induction and development assays. It is filed as cell-based, Plasmodium falciparum. The protocol:
To produce gametocytes, P. falciparum strain NF54 was cultured in vitro as described by Trager and Jensen ([46]) with minor modifications. Briefly, parasites were maintained in human type O-positive red blood cells (RBC) at 5% hematocrit (HCT) in RPMI 1640 medium supplemented with 10% heat-inactivated human serum, 10 mM hypoxanthine, 20 μg/ml gentamicin, The cultures were maintained at 37°C in a standard gas mixture of 5% O2, 5% CO2, 90% N2. Synchronous production of gametocytes was achieved as previously described ([47]). Briefly, asexual parasite cultures were synchronized by purifying schizonts with MACS cell separation columns (Miltenyi Biotec) and using them to reinvade erythrocytes. When parasitemia reached 10 to 15% rings, culture medium was supplemented with 50 mM N-acetylglucosamine (NAG; Sigma-Aldrich) for 5 days in order to clear residual asexual parasites and obtain a virtually pure gametocyte culture.
To assess the effect of gamhepathiopine on the induction of gametocytes, M1 (10 μM) was added at the same moment with NAG. For gametocyte development, gamhepathiopine was added 2 days after the addition of NAG. Medium replacement was performed every day. All cultures were prepared in parallel with controls corresponding to cultures that were treated with 0.1% DMSO. The percentages of each stage of gametocytes in cultures were assessed by microscopy of Giemsa-stained thin blood smears.
Figure S2. Protocol of in vitro gametocytocidal activity assays (NAG = N-acetylglucosamine). Gametocytes stages: I, II, III, IV and V. In blue: M1 effect on gametocyte induction: M1 (10 µM) added at D0 on asexual stage before induction with NAG (control= NAG+ DMSO). In green: M1 effect on gametocyte development: M1 (10 µM) added at D3 after induction (Control= DMSO). In red: M1 effect on exflagellation of mature male gametocytes on D10 (Control DMSO)

As to `Cc1ccc(-c2cc3nc(NC(C)(C)C)[nH]c(=O)c3s2)cc1` [Metabolite M1, 2-(tert-Butylamino)-6-(p-tolyl)thieno[3,2-d]pyrimidin-4(3H)-one], the “stage III gametocytes mean value” (10 μM added after induction, day 6 postinduction, control 1.29) was found to be 0.48. Further, the “stage V gametocytes mean value” (10 μM added after induction, day 10 postinduction, control 0.70) stood at 0.26. Also, the “reduction of the conversion rate of asexual parasites into gametocytes” value (10 μM added at D0 with NAG, renewed every day) turned out to be 87.8%.
